We go through 89 compounds from a melting point compilation (Tetko et al.; mined from patent text by program, amines drawn as free bases though some values may be those of a salt).

As a reminder, the melting point is the temperature, or range, at which the solid turns liquid.

Regarding `COc1ccc(C(Sc2cc(Oc3ccc(Cl)cc3)ccc2N)C(O)C(=O)O)cc1` (centres undefined), the melting point is 179 to 181 °C.
The figure for `COc1cccc(CC2SCCCS2)c1` is 54 to 56 °C.
In the case of `CCOC(=O)c1ccc(C=C(C)C=O)cn1`, the melting point lay within 72 to 73 °C.
In turn, `CC(=O)CC(=O)N1c2ccc(C(O)(C(F)(F)F)C(F)(F)F)cc2CC1C` (centres undefined) gave a melting point of 118 to 119 °C.
For `CC(=O)NC(=O)CSCc1ccccc1`, the melting point was in the range of 86 to 87 °C.
`Cn1ncc(C(=O)N2CCOCC2)c1C(=O)Nc1ccn2nc(-c3cccnc3)nc2c1` gave a melting point of 218 to 220 °C.
Compound `CCOC(=O)[C@H](Cc1ccc(N)cc1)NC(=O)c1ccccc1` had a melting point of 120 to 122 °C.
The figure for `COC(=O)c1ccc(OC)cc1S` is 35 to 37 °C; for `Cc1cc(-c2ccc(-c3ccccc3)c(-c3ccc4c(c3)C(C)(C)CCC4(C)C)c2)ccc1C(=O)O` it is 130 to 132 °C; for `O=C(O)Cc1ccc(NC(=O)C(COc2ccccc2)NS(=O)(=O)c2ccc(Cl)cc2)cc1` (racemic) it is 190 to 192 °C.
In turn, `N#Cc1c(C(F)(F)F)nn(-c2c(Cl)cc(C(F)(F)F)cc2Cl)c1N(C(=O)C1CC1)C(=O)C1CC1` gave a melting point of 126 to 127 °C.
`O=[N+]([O-])c1ccc(Oc2cccc(Oc3ccc([N+](=O)[O-])c(O)c3)c2)cc1O`: the melting point lay within 180 to 182 °C.
Under `CCOC(=O)c1cccc(O)c1O` stands 66 to 67.2 °C; under `O=C(c1ccccc1)c1cc2ccncc2n1S(=O)(=O)c1ccccc1`, 145 to 146 °C; under `COc1ccc(N2CCN(c3c(C)c(C)c4c(c3C)CC(C)(CN3CCCCC3)O4)CC2)cc1` (centres undefined), 122 to 125 °C.
Compound `CCOC1CCC(=O)N1S(=O)(=O)C=Cc1ccccc1` (centres undefined) yielded a melting point of 61 to 63 °C.
For the compound `CO[C@@H]1C=C2C=C3C(=C(C)C(=O)N3Cc3ccccc3)C[C@]2(C)[C@@H](C)[C@H]1O`, the melting point is 45 °C.
Under `C1=Nc2c(cnn2-c2ccccc2)C2=N[C@@H](Cc3ccccc3)CN12` stands 255 °C.
For the compound `CCN(CC1CCCC1)c1nc2ccccc2cc1CN(Cc1cc(C(F)(F)F)cc(C(F)(F)F)c1)c1nnc(C)o1`, the melting point lay in the range of 126 to 127 °C.
The figure for `Cc1onc(-c2ccccc2)c1C(=O)NCCCN1CCN(c2cc(F)ccc2OCC(F)(F)F)CC1` is 123 to 125 °C; for `CCc1nc2ccc3c(c2nc1CC)OC(COS(=O)(=O)c1ccc(C)cc1)CO3` (centres undefined) it is 132 to 135 °C; for `CNc1nc(CO)c(-c2ccncc2)s1` it is 216 to 218 °C.
On to `COC(=O)CCNC(=O)c1cc(NC(=O)c2ccc(C(=N)NC(=O)OC(C)(C)C)cc2)ccc1O`, for which the melting point fell in the range of 177 to 179 °C.
In turn, `N#Cc1cc(O)cc2cc(-c3ccc(O)c(F)c3)oc12` showed a melting point of more than 300 °C.
`Cc1cccc(C2c3ccccc3S(=O)(=O)N2C)c1` (single isomer, unassigned; (+)) showed a melting point of 154 °C.
For the compound `COc1cccc(COc2cncc(Cl)n2)c1`, the melting point was in the range of 111 to 113 °C.
In the case of `COc1ccc(-c2nc3cc(OC)cc(-c4ccccc4)c3o2)cc1`, the melting point turned out to be 92 °C.
`COCn1cc(-c2coc3ccc(-c4nnc(C)o4)cc23)cn1` yielded a melting point of 128 to 129 °C.
Turning to `CC(C)n1nc(-c2cnc(N)nc2-c2ccncc2)ccc1=O`, the melting point worked out at 219 °C.
`CCNC(=S)Nc1cc(F)ccc1C` returned a melting point of 93 to 95 °C.
`CN(C)/C=C1/C(=O)N(C(=O)OC(C)(C)C)C2C3=C(CCCC3(C)C)CC12` (centres undefined) showed a melting point of 170 to 172 °C.
`COc1cc2c(cc1F)C(=O)C(=O)N2` displayed a melting point of 260 °C.
Compound `CC(SC1COC(c2ccc(C(=O)Nc3ccc(C(N)=O)cc3)cc2)OC1)C(O)(Cn1cncn1)c1ccc(F)cc1F` (centres undefined) gave a melting point of 230 °C.
With `O=C(OC1c2nccnc2C(=O)N1c1ccc(Cl)cn1)N1CCNCC1` (centres undefined), the melting point worked out at 205 °C.
The figure for `Nc1ncnc2c1nc(Br)n2Cc1ccccc1` is 199 to 201 °C; for `O=C(O)CCc1ccc(SCc2coc(/C=C/c3ccccc3)n2)cc1` it is 120 to 121 °C; for `Cc1nc(-c2ccccc2)cc(-c2cccc([N+](=O)[O-])c2)c1CO` it is 209 to 214 °C.
In turn, `CC(=O)OC1CSC(Oc2cncc(-c3ccc(C#N)cc3C)c2)C(OC(C)=O)C1OC(C)=O` (centres undefined) had a melting point of 136 to 138 °C.
On to `CCCCCCc1ccc(-c2ccc(-c3ccc(CCCCC)cc3)c(F)c2)s1`, for which the melting point was 44 °C.
The figure for `O=C(O)CN1CCN2C(=O)N(c3cc(Cl)cc(Cl)c3)C(=O)C2(Cc2ccc(Br)cc2)C1` (centres undefined) is 236 °C; for `CCCCC(=O)Nc1ccc(Cl)c(-n2nc(CCCC)c(Cc3ccc(-c4ccccc4S(=O)(=O)NC(=O)c4ccccc4Cl)cc3)c2C(=O)OCC)c1` it is more than 95 °C.
As for `CC(C)[C@H](NC(=O)OCc1ccccc1)[C@H](O)C(F)(F)F`, the melting point fell in the range of 103 to 104 °C.
The figure for `CSc1nc2cc(-c3cccnc3)cc(N)n2n1` is 161 to 163 °C; for `Cc1cc(-n2c(C)nc3ccccc32)cc2c1NC(=O)CC2C` (centres undefined) it is 248 to 252 °C; for `Clc1ccc(-c2ccc(Cl)nn2)cc1` it is 202 to 204 °C.
`CC(CSC(C)C(=O)O)C(=O)O` (centres undefined) gave a melting point of 78 to 80 °C.
The compound `CC(C)c1cc2c(cc1C(SCC(=O)O)c1ccccc1)OCO2` (centres undefined) registered a melting point of 114 °C.
Compound `CS(=O)(=O)c1ccc(C(=O)c2ccc(F)cc2)cc1` came in with a melting point of 136 °C.
The compound `CCCCCCCOc1ccc(C(=O)CCC(=O)O)cc1` yielded a melting point of 104 to 106 °C.
`CN(C)C(=O)Nc1ccc(Br)cc1` displayed a melting point of 168 to 170 °C.
In turn, `CCOc1cc(Oc2ncc(Cl)cn2)ccc1[N+](=O)[O-]` displayed a melting point of 114 to 115 °C.
Under `CC#CCOc1ccc(S(=O)(=O)C(CCCCCC#N)C(=O)OCC)cc1` (centres undefined) stands 63 °C; under `CCCc1nc2c(N)nc3cccnc3c2n1CCCCS(=O)(=O)N(C)C`, 162 to 163 °C; under `CC(C)(C)OC(=O)N1CCC(CCN2C(=O)c3ccccc3C2=O)CC1`, 112 to 114 °C.
On to `CN1C(=O)[C@H](NC(=O)CCc2ccc(C#N)cc2)N=C(c2ccccc2)c2ccccc21`, for which the melting point fell in the range of 81 to 85 °C.
As for `N#Cc1nc(-c2cnn(-c3c(Cl)cc(C(F)(F)F)cc3Cl)c2Br)[nH]c1C#N`, the melting point was 167 to 170 °C.
Under `CCCCCCC(=O)CCCC=O` stands 33 to 34 °C; under `CCN(CC)CCNC(=O)c1ccc2cncc(I)c2n1`, 44 to 46 °C.
The compound `O=c1cc(C(F)(F)F)[nH]c(=O)n1-c1ccc(F)c(F)c1F` displayed a melting point of 137 to 138 °C.
On to `COc1cccc2c1C[C@H]1C[C@@H](CCN3CCC(O)(c4ccc(Cl)cc4)CC3)CN(C)[C@@H]1C2`, for which the melting point was 212 to 215 °C.
Regarding `N#CC(=O)c1cccc(Cl)c1`, the melting point fell in the range of 146 to 148 °C.
Compound `CCCCC=C(c1ccccc1N1CCCCC1)C(C(N)=O)c1ccc(C(=O)OCC)cc1` (centres undefined) displayed a melting point of 83 to 85 °C.
With `COc1ccc2c(c1)S(=O)(=O)C(C#N)=C(C)N2`, the melting point was in the range of 307 to 308 °C.
As for `CN1CCN(C2CC3C4CCC5CC(O)C(N6CCC(=O)CC6)CC5(C)C4CCC3(C)C2O)CC1` (centres undefined), the melting point lay within 225 to 229 °C.
With `Cn1nc(C(F)(F)F)c(CS(=O)C2=NOC(C)(C)C2)c1OC(F)F` (centres undefined), the melting point was 112 to 114 °C.
Regarding `COc1cc2c(c(OS(=O)(=O)c3ccc(C)cc3)c1OC)C1=C(CCC1)C(=O)CC2`, the melting point worked out at 138 °C.
Under `COc1ccc(S(=O)(=O)NCCc2ccc(C(=O)O)cc2)cc1` stands 177 to 178 °C.
Take `C#Cc1ccc(N(c2ccc(C#C)cc2)c2ccc(C#C)cc2)cc1`: the melting point is 115 °C.
Consider `CC(C)N1CCc2ccc(C(=O)CCC(=O)N3CCC(c4ccc(Cl)cc4)CC3)cc2C1`, for which the melting point lay in the range of 113 to 115 °C.
Under `CC(CC(=O)O)Oc1ccc(Oc2ccccc2)c(NS(C)(=O)=O)c1` (centres undefined) stands 121 to 124 °C.
In the case of `CC(C)[C@H](NC(=O)OCc1ccccc1)C(=O)N(CC(=O)O)Cc1ccccc1`, the melting point lay in the range of 41 to 45 °C.
The figure for `COc1c(N2C[C@@H](N)[C@@H](C3CC3)C2)c(F)cc2c(=O)c(C(=O)O)cn([C@@H]3C[C@@H]3F)c12` is 211 to 214 °C; for `CC12CCC3c4ccc(C(=O)O)cc4CCC3C1CCC2C(=O)c1ccc(S(C)(=O)=O)cc1` (centres undefined) it is 283 to 286 °C; for `O=C(O)c1ccc2[nH]cc(CCCCN3CCCC(Cc4ccccc4)C3)c2c1` (centres undefined) it is 144 to 147 °C.
Under `Cc1cc2nc(S(=O)Cc3ccccc3N)[nH]c2cc1C` (centres undefined) stands 179 to 181 °C; under `CC(=O)Nc1ccc2c(c1)CCCC2`, 62 °C; under `CC(CCC=O)C1CCC2C3CC=C4CC(O)CC(O)C4(C)C3CCC12C` (centres undefined), 120 to 122 °C.
Consider `CCCCCCC(=O)c1ccc(O)cc1`, for which the melting point turned out to be 93 °C.
In turn, `CN1CCCCC1CCc1ccccc1NC(=O)c1ccc(Br)cc1` (centres undefined) gave a melting point of 138 °C.
Take `O=CNC1CCc2c([nH]c3ccccc23)C1` (centres undefined): the melting point is 123 to 126 °C.
In the case of `CCc1nc2ccccc2n1C1CCN(CCCNc2ccc(F)cc2)CC1`, the melting point was 121 to 124 °C.
Compound `O=C(Nc1nccs1)c1cnc2c(C(F)(F)F)cccc2c1O` came in with a melting point of 325 °C.
The figure for `N#Cc1nccnc1Oc1cccc(C(F)(F)F)c1` is 68 to 70 °C; for `O=C(Nc1ccc2cc(CN3CCCC3)cnc2c1)c1ccc(-c2ccc(F)cc2)cc1` it is 210 to 212 °C.
As to `CCCCc1oc2ccccc2c1-c1ccc(-c2ccc(OC(Cc3ccccc3)C(=O)O)cc2)cc1` (centres undefined), the melting point is 169 to 170 °C.
As to `CCCN(CCC)C(=O)COc1nc(-c2ccc(F)cc2)nc2c1CCCC2`, the melting point fell in the range of 95 to 96 °C.
`CC1CCC(Nc2ccccc2)c2ncc(C(=O)O)c(=O)n21` (centres undefined): the melting point lay in the range of 198 to 199 °C.
In turn, `CC(=S)NCC1CN(c2ccc(N3CCSCC3)c(F)c2)C(=O)O1` (centres undefined) gave a melting point of 155 to 156 °C.
The compound `Nc1c(OCC(F)(F)F)cc(O)c2c1C(=O)c1ccccc1C2=O` showed a melting point of 266 to 268 °C.
